Results: the CheMixHub viscosity set
Several values for one entry are separate records, joined by “and”; a condition that tells them apart may be missing. Identical values can stand only once.

Assay: xn = mol fraction of the nth substance listed

OCC(F)(F)F + CCO
viscosity [mPa·s]
Conditions	298.15 K	303.15 K	308.15 K	313.15 K	318.15 K	323.15 K
100 kPa, x1 = 0.1081	1.09	1	0.92	0.84	0.77	0.71
100 kPa, x1 = 0.2039	1.09	0.99	0.91	0.83	0.76	0.7
100 kPa, x1 = 0.304	1.1	0.99	0.91	0.83	0.76	0.7
100 kPa, x1 = 0.3989	1.12	1.01	0.92	0.84	0.77	0.7
100 kPa, x1 = 0.508	1.16	1.05	0.95	0.86	0.79	0.72
100 kPa, x1 = 0.601	1.22	1.1	0.99	0.9	0.82	0.75
100 kPa, x1 = 0.7087	1.31	1.18	1.06	0.96	0.87	0.79
100 kPa, x1 = 0.7984	1.4	1.26	1.12	1.02	0.92	0.83
100 kPa, x1 = 0.9032	1.56	1.38	1.23	1.11	0.99	0.9
101 kPa, x1 = 0.01998	1.104	–	–	–	–	–
101 kPa, x1 = 0.0384	1.102	–	–	–	–	–
101 kPa, x1 = 0.05967	1.098	–	–	–	–	–
101 kPa, x1 = 0.1122	1.097	–	–	–	–	–
101 kPa, x1 = 0.1523	1.089	–	–	–	–	–
101 kPa, x1 = 0.2584	1.082	–	–	–	–	–
101 kPa, x1 = 0.3059	1.105	–	–	–	–	–
101 kPa, x1 = 0.5638	1.215	–	–	–	–	–
101 kPa, x1 = 0.8074	1.427	–	–	–	–	–

C1COCCO1 + C1CCCCC1
viscosity [mPa·s], 101 kPa
Conditions	298.15 K	303.15 K	308.15 K	313.15 K	318.15 K
x1 = 0.1001	–	0.793	–	–	–
x1 = 0.2073	–	0.783	–	–	–
x1 = 0.3007	–	0.785	–	–	–
x1 = 0.4018	–	0.787	–	–	–
x1 = 0.5018	–	0.815	–	–	–
x1 = 0.5983	–	0.841	–	–	–
x1 = 0.6997	–	0.882	–	–	–
x1 = 0.7992	–	0.934	–	–	–
x1 = 0.8901	–	1	–	–	–
x2 = 0.0864	1.083	1.009	0.936	0.869	0.808
x2 = 0.2096	0.992	0.917	0.851	0.792	0.738
x2 = 0.286	0.943	0.876	0.813	0.756	0.702
x2 = 0.391	0.887	0.82	0.763	0.709	0.661
x2 = 0.535	0.848	0.785	0.73	0.676	0.632
x2 = 0.6125	0.831	0.772	0.715	0.665	0.621
x2 = 0.685	0.821	0.766	0.711	0.66	0.617
x2 = 0.773	0.824	0.763	0.708	0.66	0.614
x2 = 0.8223	0.828	0.768	0.714	0.663	0.617
x2 = 0.9303	0.847	0.781	0.724	0.673	0.627

C1COCCO1 + Cc1ccccc1
101 kPa
Conditions	viscosity
293.15 K, x1 = 0.6506	1.045 mPa·s
303.15 K, x1 = 0.0992	0.556 mPa·s
303.15 K, x1 = 0.1216	0.5749 mPa·s
303.15 K, x1 = 0.122	0.573 mPa·s
303.15 K, x1 = 0.1993	0.591 mPa·s
303.15 K, x1 = 0.2367	0.6251 mPa·s
303.15 K, x1 = 0.237	0.622 mPa·s
303.15 K, x1 = 0.2925	0.628 mPa·s
303.15 K, x1 = 0.347	0.675 mPa·s
303.15 K, x1 = 0.3999	0.676 mPa·s
303.15 K, x1 = 0.453	0.7299 mPa·s and 0.729 mPa·s
303.15 K, x1 = 0.4961	0.723 mPa·s
303.15 K, x1 = 0.554	0.779 mPa·s
303.15 K, x1 = 0.5541	0.781 mPa·s
303.15 K, x1 = 0.5981	0.778 mPa·s
303.15 K, x1 = 0.65	0.831 mPa·s
303.15 K, x1 = 0.6504	0.8368 mPa·s
303.15 K, x1 = 0.6985	0.843 mPa·s
303.15 K, x1 = 0.7438	0.8912 mPa·s
303.15 K, x1 = 0.744	0.882 mPa·s
303.15 K, x1 = 0.8009	0.918 mPa·s
303.15 K, x1 = 0.8327	0.9416 mPa·s
303.15 K, x1 = 0.833	0.939 mPa·s
303.15 K, x1 = 0.8967	0.998 mPa·s
303.15 K, x1 = 0.918	0.9965 mPa·s and 0.995 mPa·s
308.15 K, x1 = 0.1	0.533 mPa·s
308.15 K, x1 = 0.3	0.593 mPa·s
308.15 K, x1 = 0.4	0.629 mPa·s
308.15 K, x1 = 0.5	0.669 mPa·s
308.15 K, x1 = 0.6	0.709 mPa·s
308.15 K, x1 = 0.7	0.764 mPa·s
308.15 K, x1 = 0.9	0.893 mPa·s

C=CC[P+](c1ccccc1)(c1ccccc1)c1ccccc1.[Br-] + OCCOCCO
viscosity [mPa·s], 100 kPa
Conditions	293.15 K	298.15 K	303.15 K	308.15 K	313.15 K	318.15 K	323.15 K
x1 = 0.05884	57.19	43.59	33.68	26.69	21.74	17.83	14.79
x1 = 0.09089	70.92	53.42	41.11	32.27	25.8	20.96	17.27
x1 = 0.2	213.2	150.8	109.1	81.11	61.8	47.98	37.87

C[N+](C)(C)CC(=O)[O-] + CC(=O)CCC(=O)O
viscosity [mPa·s]
Conditions	298.15 K	303.15 K	308.15 K	313.15 K	318.15 K	323.15 K
100 kPa, x2 = 0.667	1342	857.3	572.3	393.6	268.9	194.2
101 kPa, x2 = 0.7	–	838	–	–	–	221
101 kPa, x2 = 0.9	117.7	–	–	–	–	–

Brc1ccccc1 + C1COCCO1
303.15 K, 101 kPa
Conditions	viscosity [mPa·s]
x1 = 0.083	1.075
x1 = 0.17	1.078
x1 = 0.259	1.122
x1 = 0.352	1.131
x1 = 0.449	1.125
x1 = 0.55	1.115
x1 = 0.655	1.108
x1 = 0.766	1.079
x1 = 0.88	1.034

C1=C[C@H]2[C@@H](C1)[C@H]1C=C[C@@H]2C1 + CCO
viscosity [mPa·s], 101.2 kPa
Conditions	x1 = 0.1001	x1 = 0.1997	x1 = 0.2973	x1 = 0.4003	x1 = 0.501	x1 = 0.6023	x1 = 0.699	x1 = 0.8013	x1 = 0.9002
293.15 K	1.493	1.788	2.076	2.381	2.68	3.001	3.332	3.701	4.073
303.15 K	1.232	1.449	1.657	1.879	2.098	2.339	2.595	2.879	3.161
313.15 K	1.038	1.209	1.369	1.541	1.718	1.911	2.111	2.345	2.579
